Literature values as cited in US7968723B2, “Compounds, their preparation and use” (High Point Pharmaceuticals, LLC, priority 2004, dated 2011).

Key:
C2C12 muscle cells = conditions: in vitro treatment of C2C12 muscle cells; BioChem. Biophys. Acta 2003, 1633, 43-50; Mol. Endocrin. 2003, 17, 2477-2493
[1] = tested on: high fat diet induced Insulin resistant mice and diabetic ob/ob; conditions: PNAS 2003, 100, 15924-15929

In the case of Cc1cc(SCc2sc(-c3ccc(C(F)(F)F)cc3)nc2C)ccc1OCC(=O)O [GW501516], the “regulation of genes (TG hydrolysis, FFA oxidation, lipid utilization, energy expenditure, lipid efflux)” value (C2C12 muscle cells) is given as “regulation of genes involved with TG hydrolysis and FFA oxidation”, the insulin sensitivity [1] is given as “improved insulin sensitivity” and the “plasma glucose and insulin” value [1] is given as “lowering of plasma glucose and insulin”.
